Measured values reported in paper PMC3914206.

target: T1, panel of 442 kinases (Homo sapiens, UniProt Q9UF33); assay type: binding; conditions: Compound Concentration 10 µM
T1 sequence (Q9UF33 23-1036): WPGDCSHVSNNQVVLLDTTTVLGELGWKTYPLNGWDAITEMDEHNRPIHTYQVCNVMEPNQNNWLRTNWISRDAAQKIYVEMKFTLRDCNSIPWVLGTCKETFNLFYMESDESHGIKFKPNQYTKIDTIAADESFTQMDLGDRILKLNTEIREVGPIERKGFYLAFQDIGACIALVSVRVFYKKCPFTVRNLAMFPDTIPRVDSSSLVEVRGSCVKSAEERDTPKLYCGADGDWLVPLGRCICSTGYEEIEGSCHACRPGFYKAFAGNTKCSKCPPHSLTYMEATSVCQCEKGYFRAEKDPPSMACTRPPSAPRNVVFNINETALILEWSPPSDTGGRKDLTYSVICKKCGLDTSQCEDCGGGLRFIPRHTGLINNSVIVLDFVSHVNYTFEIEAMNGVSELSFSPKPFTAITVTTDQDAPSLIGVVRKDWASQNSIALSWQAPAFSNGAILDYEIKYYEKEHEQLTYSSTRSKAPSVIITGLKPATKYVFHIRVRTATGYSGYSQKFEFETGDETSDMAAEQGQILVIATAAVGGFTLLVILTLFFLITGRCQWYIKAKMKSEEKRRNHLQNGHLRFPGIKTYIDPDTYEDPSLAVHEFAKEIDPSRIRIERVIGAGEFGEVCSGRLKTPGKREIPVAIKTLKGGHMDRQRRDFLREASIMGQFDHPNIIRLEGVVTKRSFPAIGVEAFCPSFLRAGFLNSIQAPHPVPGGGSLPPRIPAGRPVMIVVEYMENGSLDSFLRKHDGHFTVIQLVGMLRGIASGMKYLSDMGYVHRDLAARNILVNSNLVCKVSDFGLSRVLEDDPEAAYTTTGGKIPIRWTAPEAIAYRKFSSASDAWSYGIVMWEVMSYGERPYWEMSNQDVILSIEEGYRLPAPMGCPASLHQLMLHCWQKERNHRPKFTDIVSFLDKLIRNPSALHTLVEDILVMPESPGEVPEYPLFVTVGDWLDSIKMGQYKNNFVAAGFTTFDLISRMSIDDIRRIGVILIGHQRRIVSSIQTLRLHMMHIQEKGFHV
From the text: We assessed the selectivity of members of this scaffold using the KINOMEscan methodology across a near comprehensive panel of 442 kinases [[18,27]].

Point of comparison: `COc1cc(C(=O)N2CCC(N3CCN(C)CC3)CC2)ccc1Nc1ncc2c(n1)N(C)c1ccccc1C(=O)N2C` [15 (LRRK2-IN-1)], “KINOMEscan: EPHA6” value 89. Against it:
- COc1cc(C(=O)N2CCC(N3CCN(C)CC3)CC2)ccc1Nc1ncc2c(n1)N(C1CCCC1)c1ccccc1C(=O)N2C [Compound 25, 11-cyclopentyl-2-((2-methoxy-4-(4-(4-methylpiperazin-1-yl)piperidine-1-carbonyl)phenyl)amino)-5-methyl-5H-benzo[e]pyrimido[5,4-b][1,4]diazepin-6(11H)-one] — higher, 100
- CCOc1cc(C(=O)N2CCC(N3CCN(C)CC3)CC2)ccc1Nc1ncc2c(n1)N(C1CCCC1)c1ccccc1C(=O)N2C [Compound 26] — higher, 100
- COc1cc(C(=O)N2CCC(N3CCN(C)CC3)CC2)ccc1Nc1ncc2c(n1)N1CCc3cccc(c31)C(=O)N2C [Compound 24] — higher, 97
